According to US8053574B2, “Organic compounds” (Novartis AG, priority 2007, dated 2011):

Biological target: PI3K γ (Homo sapiens, UniProt P48736)
Experiment: PI3 kinase phosphorylation assay (Biological Method 1), Ki γ
Assay type: biochemical
Protocol: The compounds of the invention were synthesized according to the examples provided above. PI3K inhibitory (IC50) values of the compounds were determined according to Biological Method 1.
Assay 1: Homogenous Solution Phase Assay
Compounds to be tested are dissolved in DMSO and directly distributed into 384-well flashplates at 1.25 μL per well. To start the reaction, 20 μL of 6 nM PI3 kinase are added into each well followed by 20 μL of 400 nM ATP containing a trace of radiolabeled ATP and 900 nM 1-alpha-phosphatidylinositol (PI). The plates are briefly centrifuged to remove any air gap. The reaction is performed for 15 minutes and then stopped by the addition of 20 μL of 100 mM EDTA. The stopped reaction is incubated overnight at RT to allow the lipid substrate to bind by hydrophobic interaction to the surface of the flashplate. The liquid in the wells is then washed away, and the labeled substrate is detected with scintillation counting.
Assay 2: One Step Solid Phase Assay
This method is similar to Assay 1 except that the lipid substrate (1-alpha-phosphatidylinositol (PI)) is first dissolved in a coating buffer and incubated on flashplate at room temperature overnight to allow the lipid substrate to bind by hydrophobic interaction to the surface of the flashplate. Unbound substrate is then washed away. On the day of assay, 20 μL of 6 nM PI3 kinase are added into each well followed by 20 μL of 400 nM ATP containing trace of radiolabeled ATP. Compounds are added together with enzyme and ATP to the lipid-coated plates. The plates are briefly centrifuged to remove any air gap. The reaction is performed for two to three hours. The reaction is stopped by addition of 20 μL of 100 mM EDTA or by immediate plate washing. Phosphorylated lipid substrate is detected by scintillation counting.
Assay 3: ATP Depletion Assay
Compounds to be tested are dissolved in DMSO and directly distributed into a black 384-well plate at 1.25 μL per well. To start the reaction, 25 μL of 10 nM PI3 kinase and 5 μg/mL 1-alpha-phosphatidylinositol (PI) are added into each well followed by 25 μL of 2 μM ATP. The reaction is performed until approx 50% of the ATP is depleted, and then stopped by the addition of 25 μL of KinaseGlo solution. The stopped reaction is incubated for 5 minutes and the remaining ATP is then detected via luminescence.

[1] = Table 1, compounds of formula X

Chain of PI3K γ (P48736 whole entry): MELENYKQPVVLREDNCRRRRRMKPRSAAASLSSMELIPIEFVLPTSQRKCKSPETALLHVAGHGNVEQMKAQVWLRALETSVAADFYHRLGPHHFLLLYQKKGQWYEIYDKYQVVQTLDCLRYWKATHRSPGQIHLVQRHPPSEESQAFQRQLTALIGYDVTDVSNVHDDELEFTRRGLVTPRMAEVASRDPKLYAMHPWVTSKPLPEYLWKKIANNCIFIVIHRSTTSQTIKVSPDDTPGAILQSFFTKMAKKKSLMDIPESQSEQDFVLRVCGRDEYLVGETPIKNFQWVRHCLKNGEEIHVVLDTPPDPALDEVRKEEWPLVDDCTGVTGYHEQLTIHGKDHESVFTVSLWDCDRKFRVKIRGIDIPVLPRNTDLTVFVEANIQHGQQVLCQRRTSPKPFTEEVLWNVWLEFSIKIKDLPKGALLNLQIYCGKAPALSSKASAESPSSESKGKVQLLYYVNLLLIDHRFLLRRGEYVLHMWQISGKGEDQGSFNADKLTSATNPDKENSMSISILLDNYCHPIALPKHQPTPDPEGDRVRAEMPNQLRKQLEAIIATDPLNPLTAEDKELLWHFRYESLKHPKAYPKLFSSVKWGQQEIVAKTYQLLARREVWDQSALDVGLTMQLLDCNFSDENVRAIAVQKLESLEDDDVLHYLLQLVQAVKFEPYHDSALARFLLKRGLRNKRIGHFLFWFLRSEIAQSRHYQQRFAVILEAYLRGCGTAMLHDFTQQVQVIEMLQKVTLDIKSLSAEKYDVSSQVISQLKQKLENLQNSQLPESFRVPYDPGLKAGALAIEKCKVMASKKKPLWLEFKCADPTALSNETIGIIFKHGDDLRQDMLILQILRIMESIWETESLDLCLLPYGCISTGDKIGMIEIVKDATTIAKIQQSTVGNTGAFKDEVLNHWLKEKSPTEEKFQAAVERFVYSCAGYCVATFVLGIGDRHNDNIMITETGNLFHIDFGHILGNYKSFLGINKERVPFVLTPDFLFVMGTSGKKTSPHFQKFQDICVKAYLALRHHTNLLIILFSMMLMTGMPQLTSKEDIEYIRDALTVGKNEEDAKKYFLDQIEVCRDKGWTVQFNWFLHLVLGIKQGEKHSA

| SMILES | Ki (Table 4) [µM] | Ki [1] [µM] |
| --- | --- | --- |
| CCn1nnc(CCNC(=O)Nc2nc3ccc(-c4cncc(C#N)c4)cn3n2)n1 [Example 3-9, 1-[6-(5-Cyano-pyridin-3-yl)-[1,2,4]triazolo[1,5-a]pyridin-2-yl]-3-[2-(2-ethyl-2H-tetrazol-5-yl)-ethyl]-urea] | 0.418 | – |
| CCn1nnc(CCNC(=O)Nc2nc3cc(-c4cccnc4)ccn3n2)n1 [Example 3-15, 1-[2-(2-Ethyl-2H-tetrazol-5-yl)-ethyl]-3-(7-pyridin-3-yl-[1,2,4]triazolo[1,5-a]pyridin-2-yl)-urea] | 0.502 | – |
| CCn1nnc(CCNC(=O)Nc2cn3nc(-c4cncc(F)c4)ccc3n2)n1 [Example 3-17, 1-[2-(2-Ethyl-2H-tetrazol-5-yl)-ethyl]-3-[6-(5-fluoro-pyridin-3-yl)-imidazo[1,2-b]pyridazin-2-yl]-urea] | 0.107 | – |
| CCn1nnc(CCNC(=O)Nc2cn3nc(-c4cnccc4C)ccc3n2)n1 [Example 3-18, 1-[2-(2-Ethyl-2H-tetrazol-5-yl)-ethyl]-3-[6-(4-methyl-pyridin-3-yl)-imidazo[1,2-b]pyridazin-2-yl]-urea] | 0.248 | – |
| CC(C)n1nnc(CCNC(=O)Nc2cn3cc(-c4ccncc4)ccc3n2)n1 [drawing 17] | – | 0.135 |
| CC(C)n1nnc(CCNC(=O)Nc2cn3cc(-c4cncc(C#N)c4)ccc3n2)n1 [drawing 19] | – | 0.04 |
| CC(C)n1nnc(CCNC(=O)Nc2cn3cc(-c4cncnc4)ccc3n2)n1 [drawing 21] | – | 0.165 |
| CCn1nnc(CCNC(=O)Nc2cn3cc(-c4ccc5c(c4)OCO5)ccc3n2)n1 [drawing 29] | – | 0.303 |
| CC(C)n1nnc(CCNC(=O)Nc2cn3cc(-c4cncc(OC5CCOCC5)c4)ccc3n2)n1 [drawing 39] | – | 0.147 |
| CC(C)(C)NC(=O)CCNC(=O)Nc1cn2cc(-c3cncc(-c4ccccc4)c3)ccc2n1 [drawing 43] | – | 0.207 |
| CC(C)n1nnc(CCNC(=O)Nc2cn3cc(-c4cncc(-c5ccccc5)c4)ccc3n2)n1 [drawing 45] | – | 0.24 |
| COCCOCCOc1cncc(-c2ccc3nc(NC(=O)NCCc4nnn(C(C)C)n4)cn3c2)c1 [drawing 47] | – | 0.268 |
| CC(C)(C)NC(=O)CCNC(=O)Nc1cn2cc(-c3cncc(OC4CCOCC4)c3)ccc2n1 [drawing 49] | – | 0.397 |
| COc1ccc(-c2ccc3nc(NC(=O)NCCc4nnn(C(C)C)n4)cn3c2)cn1 [drawing 51] | – | 0.301 |
| COc1ccc(-c2ccc3nc(NC(=O)NCCc4nnn(CCF)n4)cn3c2)cn1 [drawing 53] | – | 0.075 |
| Cc1ccc(-c2ccc3nc(NC(=O)NCCc4nnn(C(C)C)n4)cn3c2)cn1 [drawing 61] | – | 0.113 |
| CC(C)n1nnc(CCNC(=O)Nc2cn3cc(-c4cccc(F)c4)ccc3n2)n1 [drawing 69] | – | 0.836 |
| COc1cccc(-c2ccc3nc(NC(=O)NCCc4nnn(C(C)C)n4)cn3c2)c1 [drawing 71] | – | 1.03 |
| CC(C)n1nnc(CCNC(=O)Nc2cn3cc(-c4ccccc4)ccc3n2)n1 [drawing 75] | – | 0.423 |
| Cc1ccccc1-c1cncc(-c2ccc3nc(NC(=O)NCCc4nnn(C(C)C)n4)cn3c2)c1 [drawing 91] | – | 1.12 |
| CCn1nnc(CCNC(=O)Nc2cn3cc(-c4cncc5ccccc45)ccc3n2)n1 [drawing 97] | – | 0.158 |
| CC(=O)c1cncc(-c2ccc3nc(NC(=O)NCCc4nnn(C(C)C)n4)cn3c2)c1 [drawing 99] | – | 0.008 |
| CCn1nnc(CCNC(=O)Nc2cn3cc(Br)ccc3n2)n1 [drawing 103] | – | 0.911 |

Results, then the molecule that gave them:

| Ki (Table 4) [µM] | Ki [1] [µM] | SMILES |
| --- | --- | --- |
| 0.884 | – | CCn1nnc(CCNC(=O)Nc2cn3cc(-c4cncc(C(F)(F)F)c4)cnc3n2)n1 [Example 3-10, 1-[2-(2-Ethyl-2H-tetrazol-5-yl)-ethyl]-3-[6-(5-trifluoromethyl-pyridin-3-yl)-imidazo[1,2-a]pyrimnidin-2-yl]-urea] |
| 0.64 | – | CCn1nnc(CCNC(=O)Nc2nc3cc(-c4cncc(C(F)(F)F)c4)ccn3n2)n1 [Example 3-16, 1-[2-(2-Ethyl-2H-tetrazol-5-yl)-ethyl]-3-[7-(5-trifluoromethyl-pyridin-3-yl)-[1,2,4]triazolo[1,5-a]pyridin-2-yl]-urea] |
| – | 0.048 | CCOc1cncc(-c2ccc3nc(NC(=O)NCCc4nnn(C(C)C)n4)cn3c2)c1 [drawing 25] |
| – | 0.018 | CC(C)n1nnc(CCNC(=O)Nc2cn3cc(-c4cncc(C(F)(F)F)c4)ccc3n2)n1 [drawing 27] |
| – | 0.24 | CCn1nnc(CCNC(=O)Nc2cn3cc(-c4cccc(C(F)(F)F)c4)ccc3n2)n1 [drawing 31] |
| – | 0.05 | CC(C)n1nnc(CCNC(=O)Nc2cn3cc(-c4cncc(Cl)c4)ccc3n2)n1 [drawing 37] |
| – | 0.025 | CCc1cncc(-c2ccc3nc(NC(=O)NCCc4nnn(C(C)C)n4)cn3c2)c1 [drawing 57] |
| – | 0.028 | CCn1cnc(CCNC(=O)Nc2cn3cc(-c4cncc(C(F)(F)F)c4)ccc3n2)c1 [drawing 59] |
| – | 0.026 | CCc1nnn(CCNC(=O)Nc2cn3cc(-c4cncc(C(F)(F)F)c4)ccc3n2)n1 [drawing 63] |
| – | 0.115 | CCc1nnn(CCNC(=O)Nc2cn3cc(-c4cncc(C#N)c4)ccc3n2)n1 [drawing 65] |
| – | 0.028 | O=C(NCCn1nnc(C2CC2)n1)Nc1cn2cc(-c3cncc(C(F)(F)F)c3)ccc2n1 [drawing 67] |
| – | 0.57 | CCn1nnc(CCNC(=O)Nc2cn3cc(-c4cnc5ccccc5c4)ccc3n2)n1 [drawing 73] |
| – | 0.007 | CCn1nnc(CCNC(=O)Nc2cn3cc(-c4cncc(C(F)(F)F)c4)ccc3n2)n1 [drawing 81] |
| – | 0.002 | O=C(NCCc1nnn(CCF)n1)Nc1cn2cc(-c3cncc(C(F)(F)F)c3)ccc2n1 [drawing 83] |
| – | 0.012 | Cn1nnc(CCNC(=O)Nc2cn3cc(-c4cncc(C(F)(F)F)c4)ccc3n2)n1 [drawing 89] |
| – | 0.456 | CCn1nnc(CCNC(=O)Nc2cn3cc(-c4cnn(C)c4)ccc3n2)n1 [drawing 93] |
